Experimental findings from US9682995B2, “Amino-substituted isothiazoles” (BAYER PHARMA AKTIENGESELLSCHAFT, priority 2013, dated 2017) are described below.

Some results are limits rather than exact numbers.

One test concerns HeLa. The test is described as follows: Proliferation assay (crystal violet), HeLa. Type of test: cell-based. The settings on record: Homo sapiens, 96 h, 4 days, read-out: Inhibition of proliferation IC50 HeLa. The protocol: Cultivated tumor cells (cells were ordered from ATCC, except HeLa-MaTu and HeLa-MaTu-ADR, which were ordered from EPO-GmbH, Berlin) were plated at a density of 1000 to 5000 cells/well, depending on the growth rate of the respective cell line, in a 96-well multititer plate in 200 μL of their respective growth medium supplemented 10% fetal calf serum. After 24 hours, the cells of one plate (zero-point plate) were stained with crystal violet (see below), while the medium of the other plates was replaced by fresh culture medium (200 μl), to which the test substances were added in various concentrations (0 μM, as well as in the range of 0.001-10 μM; the final concentration of the solvent dimethyl sulfoxide was 0.5%). The cells were incubated for 4 days in the presence of test substances. Cell proliferation was determined by staining the cells with crystal violet: the cells were fixed by adding 20 μl/measuring point of an 11% glutaric aldehyde solution for 15 minutes at room temperature. After three washing cycles of the fixed cells with water, the plates were dried at room temperature. The cells were stained by adding 100 μl/measuring point of a 0.1% crystal violet solution (pH 3.0). After three washing cycles of the stained cells with water, the plates were dried at room temperature. The dye was dissolved by adding 100 μl/measuring point of a 10% acetic acid solution. Absorption was determined by photometry at a wavelength of 595 nm. The change of cell number, in percent, was calculated by normalization of the measured values to the absorption values of the zero-point plate (=0%) and the absorption of the untreated (0 μm) cells (=100%). The IC50 values were determined by means of a 4 parameter fit.

Another test concerns the target CDK2/CycE (Homo sapiens (Human), UniProt P24941). The test is described as follows: CDK2/CycE kinase assay (TR-FRET). The format is biochemical. Particulars: 10 μM ATP; read-out: CDK2 avg (IC50 [mol/l]). From the text:
CDK2/CycE-inhibitory activity of compounds of the present invention was quantified employing the CDK2/CycE TR-FRET assay as described in the following paragraphs.
Recombinant fusion proteins of GST and human CDK2 and of GST and human CycE, expressed in insect cells (Sf9) and purified by Glutathion-Sepharose affinity chromatography, were purchased from ProQinase GmbH (Freiburg, Germany). As substrate for the kinase reaction biotinylated peptide biotin-Ttds-YISPLKSPYKISEG (C-terminus in amid form) was used which can be purchased e.g. form the company JERINI peptide technologies (Berlin, Germany).
For the assay 50 nl of a 100 fold concentrated solution of the test compound in DMSO was pipetted into a black low volume 384 well microtiter plate (Greiner Bio-One, Frickenhausen, Germany), 2 μl of a solution of CDK2/CycE in aqueous assay buffer [50 mM Tris/HCl pH 8.0, 10 mM MgCl2, 1.0 mM dithiothreitol, 0.1 mM sodium ortho-vanadate, 0.01% (v/v) Nonidet-P40 (Sigma)] were added and the mixture was incubated for 15 min at 22° C. to allow pre-binding of the test compounds to the enzyme before the start of the kinase reaction. Then the kinase reaction was started by the addition of 3 μl of a solution of adenosine-tri-phosphate (ATP, 16.7 μM=>final conc. in the 5 μl assay volume is 10 μM) and substrate (1.25 μM=>final conc. in the 5 μl assay volume is 0.75 μM) in assay buffer and the resulting mixture was incubated for a reaction time of 25 min at 22° C. The concentration of CDK2/CycE was adjusted depending of the activity of the enzyme lot and was chosen appropriate to have the assay in the linear range, typical concentrations were in the range of 130 ng/ml. The reaction was stopped by the addition of 5 μl of a solution of TR-FRET detection reagents (0.2 μM streptavidine-XL665 [Cisbio Bioassays, Codolet, France] and 1 nM anti-RB(pSer807/pSer811)-antibody from BD Pharmingen [#558389] and 1.2 nM LANCE EU-W1024 labeled anti-mouse IgG antibody [Perkin-Elmer, product no. AD0077, as an alternative a Terbium-cryptate-labeled anti-mouse IgG antibody from Cisbio Bioassays can be used]) in an aqueous EDTA-solution (100 mM EDTA, 0.2% (w/v) bovine serum albumin in 100 mM HEPES/NaOH pH 7.0).
The resulting mixture was incubated 1 h at 22° C. to allow the formation of complex between the phosphorylated biotinylated peptide and the detection reagents. Subsequently the amount of phosphorylated substrate was evaluated by measurement of the resonance energy transfer from the Eu-chelate to the streptavidine-XL. Therefore, the fluorescence emissions at 620 nm and 665 nm after excitation at 350 nm was measured in a TR-FRET reader, e.g. a Rubystar (BMG Labtechnologies, Offenburg, Germany) or a Viewlux (Perkin-Elmer). The ratio of the emissions at 665 nm and at […] was taken as the measure for the amount of phosphorylated substrate. The data were normalised (enzyme reaction without inhibitor=0% inhibition, all other assay components but no enzyme=100% inhibition).
A general note: In TR-FRET formats the signal depends on donor and acceptor labels being close together.

With `COc1ccc(NC(=O)c2c(C)nsc2Nc2cnc3cc(C(F)(F)F)ccc3n2)cn1` [Example 45, N-(6-Methoxypyridin-3-yl)-3-methyl-5-{[6-(trifluoromethyl)quinoxalin-2-yl]amino}-1,2-thiazole-4-carboxamide], the values for the IC50 with HeLa and on CDK2/CycE were 0.34 µM and above 20 µM, respectively.
On to `CCOC(=O)c1coc(Nc2snc(C)c2C(=O)Nc2ccc(OC)nc2)n1` [Example 100, Ethyl 2-({4-[(6-methoxypyridin-3-yl)carbamoyl]-3 methyl-1,2-thiazol-5-yl}amino)-1,3-oxazole-4-carboxylate], for which the values for the IC50 in the test with HeLa and at CDK2/CycE were 10 µM and above 20 µM, respectively.
Regarding `CCOC(=O)c1cnc(Nc2snc(C)c2C(=O)Nc2ccc(OC)nc2)s1` [Example 29, Ethyl 2-({4-[(6-methoxypyridin-3-yl)carbamoyl]-3-methyl-1,2-thiazol-5-yl}amino)-1,3-thiazole-5-carboxylate], the IC50 in the test with HeLa is 2.8 µM; on CDK2/CycE, above 20 µM.
As to `Cc1nsc(Nc2cnc3ccccc3n2)c1C(=O)Nc1ccc(OC2CCCCC2)nc1` [Example 115, N-[6-(Cyclohexyloxy)pyridin-3-yl]-3-methyl-5-(quinoxalin-2-ylamino)-1,2-thiazole-4-carboxamide], the figures for the IC50 with HeLa and at CDK2/CycE were 1.3 µM and above 20 µM, respectively.
Regarding `Cc1nsc(Nc2cnc3cc(F)ccc3n2)c1C(=O)Nc1ccc(F)c(F)c1` [Example 46, N-(3,4-Difluorophenyl)-5-[(6-fluoroquinoxalin-2-yl)amino]-3-methyl-1,2-thiazole-4-carboxamide], the IC50 with HeLa was 0.13 µM; at CDK2/CycE it was above 20 µM.
Regarding `CCc1ccccc1NC(=O)c1c(C)nsc1Nc1cc(NC)ncn1` [Example 15, N-(2-Ethylphenyl)-3-methyl-5-{[6-(methylamino)pyrimidin-4-yl]amino}-1,2-thiazole-4-carboxamide], the figures for the IC50 in the test with HeLa and at CDK2/CycE were above 10 µM and above 20 µM, respectively.
As to `COc1ccc(NC(=O)c2c(C)nsc2Nc2cnc3cc(Cl)ccc3n2)cn1` [Example 23, 5-[(6-Chloroquinoxalin-2-yl)amino]-N-(6-methoxypyridin-3-yl)-3-methyl-1,2-thiazole-4-carboxamide], the IC50 is 1.8 µM in the test with HeLa and above 20 µM at CDK2/CycE.
On to `CCOC(=O)c1sc(Nc2snc(C)c2C(=O)Nc2ccc(OC)nc2)nc1C` [Example 30, Ethyl 2-({4-[(6-methoxypyridin-3-yl)carbamoyl]-3-methyl-1,2-thiazol-5-yl}amino)-4-methyl-1,3-thiazole-5-carboxylate], for which the results for the IC50 in the test on HeLa and on CDK2/CycE were 1.6 µM and above 20 µM, respectively.
For the compound `COc1ccc(NC(=O)c2c(C)nsc2Nc2nccnc2C#N)cn1` [Example 24, 5-[(3-Cyanopyrazin-2-yl)amino]-N-(6-methoxypyridin-3-yl)-3-methyl-1,2-thiazole-4-carboxamide], the IC50 in the test with HeLa was above 10 µM; on CDK2/CycE, above 20 µM.
The matching figures for `Cc1nsc(Nc2ncc(C(=O)N(C)C)s2)c1C(=O)Nc1ccc(F)c(F)c1` [Example 49, N-(3,4-Difluorophenyl)-5-{[5-(dimethylcarbamoyl)-1,3-thiazol-2-yl]amino}-3-methyl-1,2-thiazole-4-carboxamide]: 4.4 µM and above 20 µM.
Regarding `CCc1ccccc1NC(=O)c1c(C)nsc1Nc1cc(C(F)(F)F)ccn1` [Example 18, N-(2-Ethylphenyl)-3-methyl-5-{[4-(trifluoromethyl)pyridin-2-yl]amino}-1,2-thiazole-4-carboxamide], the IC50 in the test on HeLa is 7.5 µM; on CDK2/CycE it was above 20 µM.
Consider `Cc1nsc(Nc2nc3c(C(F)(F)F)ccnc3s2)c1C(=O)Nc1ccc(Cl)c(F)c1` [Example 103, N-(4-Chloro-3-fluorophenyl)-3-methyl-5-{[7-(trifluoromethyl)[1,3]thiazolo[5,4-b]pyridin-2-yl]amino}-1,2-thiazole-4-carboxamide], for which the IC50 with HeLa is 2.9 µM; on CDK2/CycE it was above 20 µM.
The matching figures for `Cc1nsc(Nc2ccc(C#N)cn2)c1C(=O)Nc1ccc(F)c(F)c1` [Example 28, 5-[(5-Cyanopyridin-2-yl)amino]-N-(3,4-difluorophenyl)-3-methyl-1,2-thiazole-4-carboxamide]: 1.6 µM and above 20 µM.
For the compound `Cc1nsc(Nc2cncc(C(=O)N3CCCC3)n2)c1C(=O)Nc1ccc(F)c(F)c1` [Example 106, N-(3,4-Difluorophenyl)-3-methyl-5-{[6-(pyrrolidin-1-ylcarbonyl)pyrazin-2-yl]amino}-1,2-thiazole-4-carboxamide], the IC50 with HeLa is 3.7 µM; on CDK2/CycE, above 20 µM.
Taken in the same sequence, the figures for `Cc1nsc(Nc2cnc3ccccc3n2)c1C(=O)Nc1ccc(Oc2ccccc2)nc1` [Example 112, 3-Methyl-N-(6-phenoxypyridin-3-yl)-5-(quinoxalin-2-ylamino)-1,2-thiazole-4-carboxamide] were 2 µM and above 20 µM.
Consider `COc1ccc(Oc2ccc(NC(=O)c3c(C)nsc3Nc3cnc4ccccc4n3)cn2)cc1` [Example 116, N-[6-(4-Methoxyphenoxy)pyridin-3-yl]-3-methyl-5-(quinoxaline-2-ylamino)-1,2-thiazole-4-carboxamide], for which the results for the IC50 with HeLa and at CDK2/CycE were 3.2 µM and above 20 µM, respectively.
Regarding `Cc1nsc(Nc2cnccn2)c1C(=O)Nc1ccc(Cl)c(F)c1` [Example 56, N-(4-Chloro-3-fluorophenyl)-3-methyl-5-(pyrazin-2-ylamino)-1,2-thiazole-4-carboxamide], the values for the IC50 in the test on HeLa and at CDK2/CycE were 0.79 µM and above 20 µM, respectively.
Consider `CCc1ccccc1NC(=O)c1c(C)nsc1Nc1ncnc2sccc12` [Example 12, N-(2-Ethylphenyl)-3-methyl-5-(thieno[2,3-d]pyrimidin-4-ylamino)-1,2-thiazole-4-carboxamide], for which the results for the IC50 with HeLa and on CDK2/CycE were 9.5 µM and above 20 µM, respectively.
Take `CCc1ccccc1NC(=O)c1c(C)nsc1Nc1ncnc2ccccc12` [Example 10, N-(2-Ethylphenyl)-3-methyl-5-(quinazolin-4-ylamino)-1,2-thiazole-4-carboxamide]: the IC50 in the test with HeLa is 7.2 µM; on CDK2/CycE, above 20 µM.
With `Cc1nsc(Nc2cnc3ccccc3n2)c1C(=O)Nc1ccc(Cl)c(F)c1` [Example 40, N-(4-Chloro-3-fluorophenyl)-3-methyl-5-(quinoxalin-2-ylamino)-1,2-thiazole-4-carboxamide], the IC50 in the test with HeLa is 0.56 µM; on CDK2/CycE, above 20 µM.
The matching figures for `CCOC(=O)c1cnn2ccc(Nc3snc(C)c3C(=O)Nc3ccc(F)c(F)c3)nc12` [Example 55, Ethyl 5-({4-[(3,4-difluorophenyl)carbamoyl]-3-methyl-1,2-thiazol-5-yl}amino)-pyrazolo[1,5-a]pyrimidine-3-carboxylate]: 0.92 µM and above 20 µM.
As for `CCc1ccccc1NC(=O)c1c(C)nsc1Nc1cnccn1` [Example 1, N-(2-Ethylphenyl)-3-methyl-5-(pyrazin-2-ylamino)-1,2-thiazole-4-carboxamide], the results for the IC50 with HeLa and at CDK2/CycE were 8.8 µM and above 20 µM, respectively.
